How the values were obtained:
[1] = system: PARP1/2; settings: disclosed in WO2013/097225A1; cited from earlier work
[2] = system: newly diagnosed or recurrent/refractory glioblastoma (GBM); test: dose-escalation/expansion study of Compound B with RT and/or TMZ in GBM (Example 5); format: in vivo, human; settings: across study arms, 15 patients
Description: This ongoing dose-escalation/expansion study was designed to determine the safety/tolerability and antitumor effects of Compound B (60 mg PO BID) in combination with RT and/or TMZ. The dose-escalation component consists of 3 arms:
(Arm A) Compound B (60 mg BID) at increasing exposures of 2, 4, or 6 weeks in combination with RT for 6 to 7 weeks, in newly diagnosed patients with GBM with unmethylated MGMT promoter (‘unmethylated GBM’)), and after RT is completed, subjects will receive no further study treatment;
(Arm B) Depending on the safety of the Arm A combination, Compound B in combination with RT for 6 to 7 weeks and increasing TMZ doses, in newly diagnosed patients with unmethylated GBM, and after RT is completed, subjects will receive no further study treatment;
(Arm C) Compound B in combination with increasing dose of TMZ administered on Days 1 to 21 of each 28-day cycle, in patients with recurrent/refractory methylated or unmethylated GBM.
In Arm A, Arm B and Arm C: Compound B was administered at the doses of 60 mg BID (PO); Radiation therapy (RT) was administered QD×5 days/week for 6 to 7 weeks with 1.8 to 2 Gy/fraction for a total dose of up to 60 Gy; flat-dosing was used for TMZ, and the first dose level of 40 mg QD corresponds to 23 mg/m^2 assuming an average body surface area of 1.73 m^2. […]

[3] = system: H209-T small cell lung cancer xenografts; test: H209-T intracranial tumor model; format: in vivo, nude mice; settings: single agent, 2.73 mg/kg BID
Text: H209-T is a TMZ-resistant cell line generated by treating H209-xenografted tumors with multiple cycles of TMZ in vivo.

[4] = brain penetrance; settings: in vivo
[5] = system: tumor cell lines with defects of the HR pathway; test: in vitro activity against tumor cell lines with defects of the HR pathway; format: cell-based
Text: (§1) Inhibition of PARylation in the tumor tissues correlated well with tumor drug concentrations of Compound B.

[6] = system: MDA-MB-436 breast cancer; test: BRCA1-mutant mouse xenograft model (MDA-MB-436 breast cancer); format: in vivo
Text: as §1

[7] = system: PARylation; test: PK/PD study, PARylation in MDA-MB-436 breast cancer xenografts; format: in vivo, mice; settings: oral administration
Text: as §1

[8] = system: locally advanced or metastatic solid tumors; format: in vivo
Description: This dose-escalation/expansion study is enrolling pts using a modified 3+3 design to establish the safety and MTD of Compound B plus TMZ. During dose escalation, pts receive Compound B plus escalating doses of TMZ QD on Days 1-7 (Arm A) or continuously (Arm B) of each 28-day cycle. In Arm A and Arm B: Compound B was administered at the doses of 60 mg PO BID; TMZ was administered at 20 mg, 40 mg, 80 mg, 120 mg QD corresponds to 12 mg/m^2, 23 mg/m^2, 46 mg/m^2and 69 mg/m^2assuming an average body surface area of 1.73 m^2, respectively will be administered PO QD.
The primary endpoint is safety/tolerability, including estimation of MTD and RP2D. Key secondary endpoints are PK profiles of TMZ and Compound B and antitumor activity (RECIST v1.1) of combination treatment; biomarker (eg, gBRCA) assessment is exploratory.

[9] = system: H209 small cell lung cancer xenograft; settings: single agent, 2.73 mg/kg BID x 21 days
[10] = system: non-BRCA1/2-mutated cancers; settings: cited from earlier work

## C[C@]12CCCN1CC1=NNC(=O)c3cc(F)cc4[nH]c2c1c34 [Compound A, (R)-2-fluoro-10a-methyl-7,8,9,10,10a,11-hexahydro-5,6,7a,11-tetraazacyclohepta[def]cyclopenta[a]fluoren-4(5H)-one]
[1]
  PARP1/2 inhibitory activities: highly selective and potent

## C[C@]12CCCN1CC1=NNC(=O)c3cc(F)cc4[nH]c2c1c34 [Compound B, (R)-2-fluoro-10a-methyl-7,8,9,10,10a,11-hexahydro-5,6,7a,11-tetraazacyclohepta[def]cyclopenta[a]fluoren-4(5H)-one sesqui-hydrate]
[2]
  Compound B-related AE fatigue (n patients): 5
  Compound B-related AE nausea (n patients): 6
[3]
  effect on tumor growth: no significant effect on tumor growth
[4]
  brain penetrance: significant brain penetrance
[5]
  in vitro activity as a single agent: excellent in vitro activity
[6]; more potent than olaparib
  potency relative to olaparib: 16 fold
[6]; single agent
  anti-tumor activity: strong anti-tumor activity
[7]
  inhibition of PARylation in xenografts: time- and dose-dependent inhibition of PARylation
[8]; 16 pts, Compound B 60 mg BID plus TMZ 20-120 mg QD
  most common drug-related AE: nausea (n pts): 6
[8]; in combination
  plasma exposure: consistent with single-agent trials
[9]
  effect on tumor growth: no significant effect on tumor growth

## Cn1ncnc1[C@H]1c2n[nH]c(=O)c3cc(F)cc(c23)N[C@@H]1c1ccc(F)cc1 [talazoparib]
[10]; plus 37 mg/m^2 of TMZ
  MTD, talazoparib: 1 mg

## Cn1nnc2c(C(N)=O)ncn2c1=O [TMZ, temozolomide]
[10]; with 1 mg talazoparib
  MTD, TMZ: 37 mg/m^2
[8]; human, in vivo
  most common drug-related AE: thrombocytopenia (n pts): 5
